Test [1] concerns the target T1, human FGFR3 wild type enzyme (cytoplasmic domain) (Homo sapiens, UniProt P22607).
T1 construct: human FGFR3 wild type enzyme (cytoplasmic domain, from Carna Biosciences); purchased Carna Biosciences
The test can be described thus: FGFR3 wild type mobility shift assay (enzymatic assay). It counts as biochemical. To be noted: 75 μM ATP, 50 minutes at 30° C., Caliper EZ reader II. Summed up:
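Cytoplasmic domain of human wild-type FGFR3 (0.04 ng/μL) with 75 μM ATP and 1 μM FL-peptide 30, pH 7.4 HEPES/MgCl2 buffer, 1% DMSO, 50 min at 30 °C, EDTA-stopped. Substrate-product conversion read by mobility shift. IC50, pIC50 and Hill slope from 10-point 4-fold dilutions starting at 10 μM.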

The target of test [2] is T2, NIH/3T3 cells overexpressing FGFR3 V555M-TACC3 fusion protein (Homo sapiens, UniProt P22607, V555M, cells depend on it).
T2 construct: NIH/3T3 FGFR3 V555M-TACC3 CTG (IC50); other: 72-hr incubation, CellTiter Glo, starting with 10 μM; fused on or other part: Q9Y6A5 (Transforming acidic coiled-coil-containing protein 3)
T2 sequence (P22607 whole entry V555M, the tested form may be a part): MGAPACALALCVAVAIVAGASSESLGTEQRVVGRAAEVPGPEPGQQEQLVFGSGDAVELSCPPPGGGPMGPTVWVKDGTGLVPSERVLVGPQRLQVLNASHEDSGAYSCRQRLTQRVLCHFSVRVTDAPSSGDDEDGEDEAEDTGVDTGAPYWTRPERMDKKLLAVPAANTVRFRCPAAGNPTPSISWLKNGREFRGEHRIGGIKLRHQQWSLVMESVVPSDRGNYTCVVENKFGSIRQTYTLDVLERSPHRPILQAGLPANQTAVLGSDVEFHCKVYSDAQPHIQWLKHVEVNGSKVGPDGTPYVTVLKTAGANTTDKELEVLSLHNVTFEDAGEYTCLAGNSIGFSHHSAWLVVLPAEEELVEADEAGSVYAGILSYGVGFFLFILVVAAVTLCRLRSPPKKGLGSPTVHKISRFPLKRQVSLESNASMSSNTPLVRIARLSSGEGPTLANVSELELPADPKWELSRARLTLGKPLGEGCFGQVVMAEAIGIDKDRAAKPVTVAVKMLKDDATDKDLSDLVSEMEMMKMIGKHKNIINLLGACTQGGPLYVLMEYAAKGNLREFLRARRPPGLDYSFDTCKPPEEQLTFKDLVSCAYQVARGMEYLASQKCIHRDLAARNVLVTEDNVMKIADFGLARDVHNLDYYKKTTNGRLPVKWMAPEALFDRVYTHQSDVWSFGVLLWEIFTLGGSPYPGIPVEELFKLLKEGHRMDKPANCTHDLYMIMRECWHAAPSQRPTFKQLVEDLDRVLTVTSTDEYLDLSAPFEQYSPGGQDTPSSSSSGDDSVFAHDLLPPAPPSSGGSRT
The test can be described thus: NIH/3T3 FGFR3 V555M-TACC3 cell proliferation assay. Type of test: cell-based. The conditions noted are these: 72-hr incubation, CellTiter Glo, starting with 10 μM; read-out: NIH/3T3 FGFR3 V555M-TACC3 CTG (IC50). The method in brief:
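NIH/3T3 cells overexpressing FGFR3 V555M-TACC3 fusion, 30,000/well in DMEM/10% FBS, treated for 72 h at 37 °C with 9 doses (4× dilutions from 10 μM top, 0.1% DMSO). CellTiter-Glo luminescence normalised to % survival; IC50, pIC50 and Hill slope from concentration-response fits.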
In general terms: In ATP-based viability assays light output follows the ATP content of the culture.

The target in test [3] is T3, NIH/3T3 cells overexpressing FGFR3 WT-TACC3 fusion protein (Homo sapiens, UniProt P22607).
T3 construct: NIH/3T3 FGFR3 WT-TACC3 CTG (IC50); other: 72-hr incubation, CellTiter Glo, starting with 10 μM; fused on or other part: Q9Y6A5 (Transforming acidic coiled-coil-containing protein 3)
T3 sequence (P22607 whole entry, change not shown, the tested form may be a part): as the sequence (P22607 whole entry V555M, the tested form may be a part) above, with M555V counted along it
The test can be described thus: NIH/3T3 FGFR3 WT-TACC3 cell proliferation assay. It counts as cell-based. To be noted: 72-hr incubation, CellTiter Glo, starting with 10 μM; read-out: NIH/3T3 FGFR3 WT-TACC3 CTG (IC50). Summed up:
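Cells seeded overnight, then exposed 72 h at 37 °C to compound in 9-point 4-fold dilutions from 10 μM (0.1% DMSO final). Viability read by CellTiter-Glo luminescence, normalized to survival %; IC50, pIC50 and Hill slope from concentration-response fit.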

In test [4] the target is T4, human FGFR3 V555M enzyme (cytoplasmic domain carrying V555M mutation) (Homo sapiens, UniProt P22607, V555M).
T4 construct: human FGFR3 V555M enzyme (cytoplasmic domain carrying V555M mutation, from Carna Biosciences); purchased Carna Biosciences
T4 sequence (P22607 397-806 V555M limits assumed): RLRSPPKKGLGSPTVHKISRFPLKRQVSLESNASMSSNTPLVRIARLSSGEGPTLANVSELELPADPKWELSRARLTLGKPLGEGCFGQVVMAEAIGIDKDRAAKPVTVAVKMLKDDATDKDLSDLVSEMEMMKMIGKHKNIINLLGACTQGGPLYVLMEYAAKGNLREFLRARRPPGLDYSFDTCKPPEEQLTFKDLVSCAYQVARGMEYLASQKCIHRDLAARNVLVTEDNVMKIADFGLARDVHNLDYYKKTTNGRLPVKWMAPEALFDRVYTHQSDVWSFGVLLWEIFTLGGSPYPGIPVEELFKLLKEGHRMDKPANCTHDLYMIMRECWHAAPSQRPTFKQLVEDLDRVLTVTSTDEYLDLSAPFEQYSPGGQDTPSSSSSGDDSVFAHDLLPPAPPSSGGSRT
The test can be described thus: FGFR3 V555M mobility shift assay (enzymatic assay). Type of test: biochemical. The conditions noted are these: 30 μM ATP, 45 minutes at 30° C., Caliper EZ reader II. The method in brief: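 Cytoplasmic-domain FGFR3 V555M (0.04 ng/μL) with 30 μM ATP and 1 μM FL-peptide 30 in HEPES pH 7.4/MgCl2/Brij35/DTT, 1% DMSO, 45 min at 30 °C, EDTA-stopped. Mobility-shift read of substrate-product conversion; 10-point 4× dilution from 10 μM fitted for IC50/pIC50.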

Test [5] deals with NIH/3T3 cells transfected with the same control vector. The test can be described thus: NIH/3T3 mock cell proliferation assay (counter assay, general toxicity). Type of test: cell-based. To be noted: 72-hr incubation, CellTiter Glo, starting with 30 μM, counter assay for general toxicity, read-out: NIH/3T3 MOCK CTG (IC50). Summed up: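 Control-vector NIH/3T3 cells, 30,000/well in DMEM with 10% FBS, exposed 72 h at 37 °C to compound (9 points, 3-fold from 30 μM, 0.3% DMSO). CellTiter-Glo luminescence normalized to survival %; IC50, pIC50 and Hill slope from concentration-response fit.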

Where two headings read alike, the source gives them in different places.

T1 sequence (P22607 397-806 limits assumed): as the sequence (P22607 397-806 V555M limits assumed) above, with M159V counted along it

As to `CC(Nc1c(-c2nc3ccc(-c4cnn(C)c4)cc3[nH]2)c(=O)[nH]c2ccccc12)c1ncccn1` (single isomer, unassigned) [Compound 53a, (S*)-3-(6-(1-methyl-1H-pyrazol-4-yl)-1H-benzo[d]imidazol-2-yl)-4-((1-(pyrimidin-2-yl)ethyl)amino)quinolin-2(1H)-one], the IC50 came to 0.47 nM in test [1]; 0.186 nM in test [4]; 1690 nM in test [5] (Mus musculus, NIH3T3, 72 h). Also, the GI50 in test [2] is 8.64 nM; in test [3], 9.9 nM.
For the compound `CC(Nc1c(-c2nc3cc(C(F)(F)F)c(N4CCC(C(=O)O)CC4)cc3[nH]2)c(=O)[nH]c2ccccc12)c1ncccn1` (single isomer, unassigned) [Compound 58, (S*)-1-(2-(2-oxo-4-((1-(pyrimidin-2-yl)ethyl)amino)-1,2-dihydroquinolin-3-yl)-5-(trifluoromethyl)-1H-benzo[d]imidazol-6-yl)piperidine-4-carboxylic acid], the IC50 amounted to 0.545 nM in test [1]; 0.382 nM in test [4]; 8240 nM in test [5] (Mus musculus, NIH3T3, 72 h). Besides, the GI50 in test [2] is 28.9 nM; in test [3] it was 4.19 nM.
As to `COC(=O)C1CN(c2ccc3nc(-c4c(N[C@@H](C)c5ccccn5)c5ccccc5[nH]c4=O)[nH]c3c2)CCO1` (single isomer, unassigned) [Compound 61, (S*)-methyl 4-(2-(2-oxo-4-(((S)-1-(pyridin-2-yl)ethyl)amino)-1,2-dihydroquinolin-3-yl)-1H-benzo[d]imidazol-6-yl)morpholine-2-carboxylate], the IC50 stood at 2.15 nM in test [1], 1.13 nM in test [4] and 1840 nM in test [5]. Besides, the GI50 in test [2] came to 111 nM; in test [3] it was 113 nM.
On the same counts, the results for `COC(=O)C1CN(c2ccc3nc(-c4c(N[C@@H](C)c5ccccn5)c5ccccc5[nH]c4=O)[nH]c3c2)CCO1` (single isomer, unassigned) [Compound 62, (R*)-methyl 4-(2-(2-oxo-4-(((S)-1-(pyridin-2-yl)ethyl)amino)-1,2-dihydroquinolin-3-yl)-1H-benzo[d]imidazol-6-yl)morpholine-2-carboxylate] are 2.91 nM, 1.21 nM, 12700 nM, 451 nM and 389 nM.
Turning to `C[C@@H](Nc1c(-c2nc3ccc(N4CCOCC4)cc3[nH]2)c(=O)[nH]c2ccccc12)c1ncccn1` [Compound 3, (R)-3-(6-morpholino-1H-benzo[d]imidazol-2-yl)-4-((1-(pyrimidin-2-yl)ethyl)-amino)quinolin-2(1H)-one], the IC50 amounted to 585 nM in test [1]; 204 nM in test [4]; 11000 nM in test [5] (Mus musculus, NIH3T3, 72 h). For the same compound, the GI50 in test [2] worked out at 41.8 nM; in test [3], 58.5 nM.
In the case of `C[C@H](Nc1c(-c2nc3ccc(N4CCC(C(=O)O)CC4)cc3[nH]2)c(=O)[nH]c2ccccc12)c1ccccn1` [Compound 6, (S)-1-(2-(2-Oxo-4-((1-(pyridin-2-yl)ethyl)amino)-1,2-dihydroquinolin-3-yl)-H-benzo[d]imidazol-6-yl)piperidine-4-carboxylic acid 0.5formate], the IC50 in test [1] stood at 0.809 nM; in test [4], 0.484 nM; in test [5] (Mus musculus, NIH3T3, 72 h), 795 nM. Further, the GI50 was 61.7 nM in test [2] and 32.3 nM in test [3].
Regarding `COC(=O)C1CCN(c2ccc3nc(-c4c(N[C@@H](C)c5ccccn5)c5ccccc5[nH]c4=O)[nH]c3c2)CC1` [Compound 7, (S)-Methyl-1-(2-(2-oxo-4-((1-(pyridin-2-yl)ethyl)amino)-1,2-dihydroquinolin-3-yl)-1H-benzo[d]imidazol-6-yl)piperidine-4-carboxylate], the IC50 in test [1] was 1.83 nM; in test [4] it was 1.3 nM; in test [5] (Mus musculus, NIH3T3, 72 h) it was 858 nM. Also, the GI50 in test [2] worked out at 99.7 nM; in test [3], 19.8 nM.
Turning to `C[C@H](Nc1c(-c2nc3cc(C(F)(F)F)c(N4CCN(C)CC4)cc3[nH]2)c(=O)[nH]c2ccccc12)c1ccccn1` [Compound 14, (S)-3-(6-(4-methylpiperazin-1-yl)-5-(trifluoromethyl)-1H-benzo[d]imidazol-2-yl)-4-((1-(pyridin-2-yl)ethyl)amino)quinolin-2(1H)-one], the IC50 in test [1] stood at 3.38 nM; in test [4], 2.15 nM; in test [5] (Mus musculus, NIH3T3, 72 h) it was 3010 nM. Further, the GI50 is 141 nM in test [2] and 52.2 nM in test [3].
With `C[C@H](Nc1c(-c2nc3ccc(N4CCN(C)C(=O)C4)cc3[nH]2)c(=O)[nH]c2ccccc12)c1ccccn1` [Compound 15, (S)-3-(6-(4-methyl-3-oxopiperazin-1-yl)-1H-benzo[d]imidazol-2-yl)-4-((1-(pyridin-2-yl)ethyl)amino)quinolin-2(1H)-one], the IC50 in test [1] was determined as 0.851 nM; in test [4], 0.351 nM; in test [5] (Mus musculus, NIH3T3, 72 h), 1190 nM. The GI50 in test [2] was found to be 24.9 nM; in test [3], 12.4 nM.
For the compound `C[C@H](Nc1c(-c2nc3ccc(N4CCOCC4)cc3[nH]2)c(=O)[nH]c2c(F)cccc12)c1ccccn1` [Compound 16, (S)-8-fluoro-3-(6-morpholino-1H-benzo[d]imidazol-2-yl)-4-((1-(pyridin-2-yl)ethyl)-amino)quinolin-2(1H)-one], the IC50 in test [1] turned out to be 16.6 nM; in test [4] it was 2.66 nM; in test [5] (Mus musculus, NIH3T3, 72 h) it was 2600 nM. The GI50 in test [2] was determined as 274 nM; in test [3], 253 nM.
On to `C[C@H](Nc1c(-c2nc3ccc(N4CCOCC4)cc3[nH]2)c(=O)[nH]c2ccc(F)cc12)c1ccccn1` [Compound 17, (S)-6-fluoro-3-(6-morpholino-1H-benzo[d]imidazol-2-yl)-4-((1-(pyridin-2-yl)ethyl)-amino)quinolin-2(1H)-one], for which the IC50 came to 4.89 nM in test [1]; 0.997 nM in test [4]; 661 nM in test [5] (Mus musculus, NIH3T3, 72 h). Further, the figures for the GI50 in test [2] and in test [3] were 114 nM and 58.7 nM, respectively.
On to `C[C@H](Nc1c(-c2nc3cc(C(F)(F)F)c(NC4CCN(C)CC4)cc3[nH]2)c(=O)[nH]c2ccccc12)c1ccccn1` [Compound 18, (S)-3-(6-((1-methylpiperidin-4-yl)amino)-5-(trifluoromethyl)-1H-benzo[d]imidazol-2-yl)-4-((1-(pyridin-2-yl)ethyl)amino)quinolin-2(1H)-one], for which the IC50 in test [1] was found to be 1.35 nM; in test [4], 1.35 nM; in test [5] (Mus musculus, NIH3T3, 72 h), 733 nM. The GI50 in test [2] was found to be 87.8 nM; in test [3], 56.8 nM.
In the case of `C[C@H](Nc1c(-c2nc3cc(C(F)(F)F)c(N(C)C4CCN(C)CC4)cc3[nH]2)c(=O)[nH]c2ccccc12)c1ccccn1` [Compound 19, (S)-3-(6-(methyl(1-methylpiperidin-4-yl)amino)-5-(trifluoromethyl)-1H-benzo[d]-imidazol-2-yl)-4-((1-(pyridin-2-yl)ethyl)amino)quinolin-2(1H)-one], the IC50 in test [1] turned out to be 0.367 nM; in test [4], 0.358 nM; in test [5] (Mus musculus, NIH3T3, 72 h), 2450 nM. The GI50 in test [2] was determined as 66.5 nM; in test [3], 46.1 nM.
On the same counts, the results for `C[C@H](Nc1c(-c2nc3ccc(C(=O)N4CCOCC4)cc3[nH]2)c(=O)[nH]c2ccccc12)c1ccccn1` [Compound 20, (S)-3-(6-(morpholine-4-carbonyl)-1H-benzo[d]imidazol-2-yl)-4-((1-(pyridin-2-yl)-ethyl)amino)quinolin-2(1H)-one] are 0.826 nM, 0.49 nM, 952 nM, 17.1 nM and 23.5 nM.

The values above are taken from US11384075B2, “Quinolinone compounds” (Janssen Pharmaceutica NV, priority 2017, dated 2022).
